In assay [1] the test system is B-Raf(V600E)-Ba/F3 cell line. Put plainly: B-Raf(V600E)-Ba/F3 proliferation assay (Cell-Titer-Glo). It is filed as cell-based. The note with it: 384-well, called historical data, SD in parentheses (n=4-6). As for the experimental part: The B-Raf(V600E)-Ba/F3 cell line was generously provided by Markus Warmuth (GNF). Ba/F3 cells were counted and diluted to a final concentration of 75,000 cells/ml in RPMI media and 50μl/well were plated into 384-well white solid bottom plates. 50nl of a 10mM compound stock in DMSO were pintool transferred followed by a 48h incubation time at 37°C for 48h. Finally, 25μl Cell-Titer-Glo (Promega) detection reagent was added each and luminescence read were taken on a […] (Molecular Devices Corp.) reader.

For assay [2], the target named is T1, B-Raf(V600E) (Homo sapiens, UniProt P15056, V600E).
T1 construct: Full-length B-Raf wild-type (WT) and B-Raf(V600E) (NM_004333) cDNAs were subcloned from pcDNA3.1 into pcDNA5TO; expressed in transfected cells
T1 sequence (P15056 whole entry V600E): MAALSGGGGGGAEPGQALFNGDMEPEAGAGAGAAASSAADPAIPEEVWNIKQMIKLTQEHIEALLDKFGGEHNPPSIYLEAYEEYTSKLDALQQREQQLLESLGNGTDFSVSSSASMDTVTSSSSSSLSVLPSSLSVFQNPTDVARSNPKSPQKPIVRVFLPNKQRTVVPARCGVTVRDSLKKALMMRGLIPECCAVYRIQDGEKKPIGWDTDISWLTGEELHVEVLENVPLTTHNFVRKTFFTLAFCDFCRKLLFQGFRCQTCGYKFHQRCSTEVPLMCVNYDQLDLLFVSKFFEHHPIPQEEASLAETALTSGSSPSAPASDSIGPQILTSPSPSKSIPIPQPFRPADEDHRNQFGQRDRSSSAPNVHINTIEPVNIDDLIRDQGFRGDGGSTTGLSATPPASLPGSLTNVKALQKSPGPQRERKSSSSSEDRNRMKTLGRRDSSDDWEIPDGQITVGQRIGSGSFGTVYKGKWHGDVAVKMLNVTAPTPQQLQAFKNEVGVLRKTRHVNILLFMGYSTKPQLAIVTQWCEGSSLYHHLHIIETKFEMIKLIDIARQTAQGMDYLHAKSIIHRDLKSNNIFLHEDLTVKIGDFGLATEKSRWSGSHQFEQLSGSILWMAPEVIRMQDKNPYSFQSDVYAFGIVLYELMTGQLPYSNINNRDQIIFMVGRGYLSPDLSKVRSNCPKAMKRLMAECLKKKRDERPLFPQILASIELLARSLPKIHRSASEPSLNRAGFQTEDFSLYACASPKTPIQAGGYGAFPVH
Put plainly: B-Raf(V600E)/MEK1(WT) cellular TR-FRET assay (double stable HEK293 T-Rex cells). It is filed as cell-based. The note with it: MEK(WT) substrate, ~2h compound treatment, SD in parentheses (n=4-6); for pIC50: 384-well. A general note: In TR-FRET formats the signal depends on donor and acceptor labels being close together.

Assay [3] addresses T1, B-Raf(V600E). The assay can be described thus: B-Raf(V600E)/MEK1(KD) cellular TR-FRET assay (double stable HEK293 T-Rex cells). It is filed as cell-based. The following applies: for pIC50: B-Raf(V600E) TR-FRET, kinase-inactive MEK(KD) substrate, 384-well, ~2h compound treatment, SD in parentheses (n=4-6).
Assay [4] has as its target T1, B-Raf(V600E). Put plainly: B-Raf(V600E)/cSTKpep-3 cellular TR-FRET assay (double stable HEK293 T-Rex cells). It is filed as cell-based. The following applies: cSTKpep-3 substrate, ~2h compound treatment, SD in parentheses (n=4-6); for pIC50: 384-well.
The target in another assay is T2, AKT (Homo sapiens, UniProt P31749).
T2 construct: expressed in transfected cells; host or cells: HEK293 (transient co-transfection)
T2 sequence (P31749 whole entry): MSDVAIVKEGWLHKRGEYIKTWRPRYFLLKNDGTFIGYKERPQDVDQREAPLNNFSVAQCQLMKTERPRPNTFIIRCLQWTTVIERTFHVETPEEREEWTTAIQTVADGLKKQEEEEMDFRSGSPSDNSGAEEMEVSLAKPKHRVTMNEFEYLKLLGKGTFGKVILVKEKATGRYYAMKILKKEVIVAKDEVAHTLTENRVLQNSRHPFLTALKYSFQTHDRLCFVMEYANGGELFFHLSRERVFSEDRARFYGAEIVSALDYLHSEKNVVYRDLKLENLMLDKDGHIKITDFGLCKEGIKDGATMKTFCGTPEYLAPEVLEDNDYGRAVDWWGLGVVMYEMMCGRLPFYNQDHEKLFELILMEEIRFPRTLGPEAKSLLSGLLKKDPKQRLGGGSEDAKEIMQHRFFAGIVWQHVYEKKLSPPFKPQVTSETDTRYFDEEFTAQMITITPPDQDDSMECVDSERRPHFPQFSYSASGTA
The assay can be described thus: AKT/cSTKpep-3 cellular TR-FRET assay (transient, HEK293). The note with it: Fig. 7C; comparable potencies in both assays. It is filed as cell-based.

Assay [5] relates to AKT activation (Ser473 phosphorylation). The assay can be described thus: p-AKT(Ser473) cellular TR-FRET assay with His-tagged AKT (HEK293). It is filed as cell-based, human. The note with it: for observed potency (concentration range), AKT phosphorylation assay: Fig. 7B, comparable potencies in both assays.
The next assay relates to CamK2δ. Put plainly: CamK2δ/cSTKpep-1 cellular TR-FRET assay (transient, HEK 293). The following applies: 5min ionomycin treatment (1µM). It is filed as cell-based. On the procedure:
HEK293 cells were transfected using Fugene 6 (Roche) at a density of 8000 cells/well in 384-well plates and a final transfection volume of 30μl. The amounts of kinase and substrate plasmids per well varied for each experiment and are specified in the figure legends. Cell lysis and detection of phosphorylated or total substrate levels was performed 48h post transfection by addition of 30μl detection buffer (50 mM Hepes pH 7.2, 0.1% BSA, 20mM EDTA, 0.8M KF, and 2% Triton) containing anti-FLAG XL665 (2ng/ul) and Eu-pSTK (0.18ng/μl) or Eu-pMEK1 (0.24ng/μl). For the relative determination of total substrate levels 30μl detection buffer was added per well containing anti-FLAG XL665 (2ng/μl) and Eu-cMyc (0.3ng/μl). Plates were incubated for 3-6h at room temperature and TR-FRET readings taken on Acquest, Analyst GT (Molecular Devices Corp.), Envision or Viewlux (Perkin Elmer) plate readers. […]
Fig. (8). Induction of CamK2δ activity. Transient transfection reactions were performed in 384-well plates as indicated. HEK 293 were reverse transfected with 50ng CamK2δ and 50ng (black bars) or 25ng (gray bars) cSTKpep-1. CamK2δ activity was induced through 5min ionomycin treatment (1µM) and p-cSTKpep-1 was quantified by TR-FRET.

pIC50: −log10 of the molar value.

Take `CNC(=O)c1cc(Oc2ccc(NC(=O)Nc3ccc(Cl)c(C(F)(F)F)c3)cc2)ccn1` [Bayer 43-9006]: the negative-log IC50 (pIC50) in assay [1] (48h) is […].

With `O=c1cc(N2CCOCC2)oc2c(-c3ccccc3)cccc12` [LY294002, 2-(4-morpholinyl)-8-phenyl-4H-1-benzopyran-4-one], at B-Raf(V600E) [2], the pIC50 is under 4.48 and the “IC50 MEK(WT) 384-well” value is “did not show any activity”. Further, on B-Raf(V600E) [3], the pIC50 is under 4.48. Further, on B-Raf(V600E) [4], the negative-log IC50 (pIC50) is under 4.48 and the “IC50 cSTKpep-3 384-well” value was “did not show any activity”. For the same compound, the “observed potency (concentration range), cSTKpep-3 phosphorylation assay” value at AKT is on record as “low micromolar”. In addition, in assay [5], the “observed potency (concentration range), AKT phosphorylation assay” value is “low micromolar”.

For `O=C(NOC[C@H](O)CO)c1ccc(F)c(F)c1Nc1ccc(I)cc1F` [PD0325901], at B-Raf(V600E) [3], the “IC50 MEK(KD) 384-well” value was “inactive”. In assay [1] (Mus musculus, BaF3, 48h), the pIC50 is […].

Take `CN[C@@H]1C[C@H]2O[C@@](C)([C@@H]1OC)n1c3ccccc3c3c4c(c5c6ccccc6n2c5c31)C(=O)NC4` [Staurosporine]: the “factor between activity on p-AKT versus p-cSTKpep-3” value in assay [5] (p-AKT IC50 versus p-cSTKpep-3 IC50) is listed as ~ 100 fold.

In the case of `COC[C@H]1OC(=O)c2coc3c2[C@@]1(C)C1=C(C3=O)[C@@H]2CCC(=O)[C@@]2(C)C[C@H]1OC(C)=O` [Wortmannin], at B-Raf(V600E) [2], the negative-log IC50 (pIC50) was under 4.48 and the “IC50 MEK(WT) 384-well” value was “did not show any activity”. In addition, the pIC50 on B-Raf(V600E) [3] was under 4.48. On B-Raf(V600E) [4], the pIC50 is under 4.48 and the “IC50 cSTKpep-3 384-well” value is reported as “did not show any activity”. The “observed potency (concentration range), cSTKpep-3 phosphorylation assay” value at AKT is given as “low nanomolar”. Further, the “observed potency (concentration range), AKT phosphorylation assay” value in assay [5] was “low nanomolar”.

As for `C[C@H](CCC(=O)O)C[C@H](C)C[C@H](C)C(=O)/C=C(\O)[C@H](C)C[C@H](C)C/C=C/[C@@H](C)[C@@H](O)[C@@H](C)[C@@H](O)C[C@@H]1CC[C@@](C)([C@H]2CC[C@@](C)([C@@H](C)O)O2)O1` [ionomycin], the “induction of CamK2δ activity / cSTKpep-1 phosphorylation” value in the assay on CamK2δ is “ionomycin inducible”.

The pIC50 is the IC50 on a negative log10 scale, so that one unit is a factor of ten.

For the origin of these results see PMC2774688, “Cellular Ser/Thr-Kinase Assays Using Generic Peptide Substrates” (Current Chemical Genomics, 2008).
